# Reference: patent publication US20060270737A1, “Menthol propyleneglycol-carbonate and analogs thereof as insect pest repellents” (priority 2003, published 2006)
# Key:
# Format in all cases: in vivo
# [1] = tested on: red ant (pharaoh ant, Monomorium pharaonis); test: Ant repellent test, impregnated filter paper barrier around table leg; details: mean ± SEM of 5 tests
# Experimental: The red ant (pharaoh ant, Monomorium pharaonis) was selected for this ant repellent test since it has a worldwide distribution and is known to be a household pest. Red ants are attracted to the smell of food. The attractant in this experiment was a piece of chocolate, which was placed on a tabletop 5 hours before the test. Within 2 hours after being released on the ground around the table, the red ants established a route from the ground up the table legs. At the 5th hour, a filter paper impregnated with racemic menthol propyleneglycol-carbonate at two concentrations was placed around the middle portion of the table leg. The test compound was dissolved in ethanol and impregnated into a pre-weighed, 2 inch by 7 inch piece of filter paper. After complete evaporation of ethanol, the filter paper was weighed and the final weight of the test compound was determined per cm^2 of the filter paper. The control employed was the same filter paper soaked with ethanol only. The time for the first ant to cross the filter paper barrier was determined.
# [2] = tested on: mosquitoes; test: Standard mosquito chamber test of halloysite-entrapped and free active in aloe vera cream; details: 20% w/w in aloe vera cream, forearm, 3 human volunteers; in min
# Experimental: This study was conducted to evaluate the suitability of encapsulation or entrapment as a means of reducing the amount of racemic menthol propyleneglycol-carbonate required to produce a repellent effect and to provide a means of protecting the active material from degradation by other excipients in the formulation or from high temperatures associated with manufacturing, as in the case of impregnation of textile materials. The halloysite clay represents an example of many other suitable encapsulation materials available in the industry and is not intended as a limitation of the scope of this invention.
# Halloysite clay is a naturally derived, nontoxic, biodegradable material typically used in the manufacture of porcelain, bone china and fine china. U.S. Pat. No. 5,651,976 to Price and Gaber describes a new method of controlled release using microtubules made from halloysite clay. […] The halloysite entrapped racemic menthol propyleneglycol-carbonate used in this study was supplied as a gift from Federal Technology Group (Bozeman, Mont.), with a total entrapped active material determined at 17% of the total weight. […] Protection time was measured as the time at which the human subject experienced the first mosquito bite. […]
# [3] = tested on: milk termite, Coptotermes vastator; test: Inhibition of termite infestation, weight loss of impregnated soft wood
# Experimental: The milk termite, Coptotermes vastator, is a pest found in tropical and sub-tropical areas. To test the efficacy of racemic menthol propyleneglycol-carbonate, this chemical was dissolved in 95% ethanol at concentration of 10% w/w and pieces of pre-weighed soft wood were immersed in the solution for 24 hours. After impregnation, the wood was allowed to dry in air to remove the ethanol which has a lower flash point. The dry wood was reweighed to determine the total amount of racemic menthol propyleneglycol-carbonate absorbed into the wood. The weight of racemic menthol propyleneglycol-carbonate absorbed was 26 milligrams per gram of wood. Controls were prepared using wood impregnated with 95% ethanol alone.
# The wood test samples were placed on top of a fallen jackfruit tree (Artocarpus heterophylla) heavily infested by termites under ambient, natural, outdoor conditions for a period of 2 months. At the end of the test period, the wood samples were cleaned of debris and termites, dried in the sun and weighed. The degree of wood preservation was determined by the amount of weight loss during the test period.
# [4] = tested on: fire ants (s. invicta); test: Fire ant bait protection test; details: 50% (v/v) in ethanol sprayed on peanut butter bait, 4 replicates, terminated after 5 hours
# Experimental: In this study, the repellent effect of racemic menthol propyleneglycol-carbonate was examined by preparing a solution of this chemical in ethanol at concentration of 50% (v/v). The solution was sprayed with a pump spray dispenser ([…] & Associates, Duarte, Calif.) to a bait composed of sugary food (in this case, peanut butter). The control was composed of ethanol alone. This study was conducted in Fort Pierce, Fla. The protection time was measured as the time when the first ant started consuming the bait. […] The experiment was terminated after 5 hours of observation. Each study group was composed of 4 replicates. In the control which was sprayed with ethanol alone, the fire ants (s. invicta) were seen on the bait within 3 minutes after the spray was applied.
# [5] = tested on: mosquito; test: Outdoor mosquito tests, protection time on exposed arms of human volunteers; details: outdoors from 3:00 PM, 3 human volunteers per group, test chemical 10% w/w in ointment base, ± SEM
# Experimental: To validate the efficacy of menthol propyleneglycol-carbonate under ambient conditions in nature, this chemical was mixed in an ointment base at 10% w/w and applied to the exposed arms of human volunteers who remained outdoors during the peak period of mosquito biting, beginning at 3:00 PM. The protection time was recorded and compared with that obtained from human volunteers using a commercially available insect repellent (OFF! Skintastic; 7% DEET) manufactured by SC Johnson & Sons, Inc. (Racine, Wis.). Control ointment consisted of Fougera ointment without any active ingredient. The protection time was determined for 3 human volunteers for each test group.
# [6] = tested on: stable fly or dog fly (Stomoxys calcitrans); test: Stable flies landing on sprayed meat bait
# Experimental: To test the effectiveness of racemic menthol propylene glycol carbonate, a 50% solution was prepared in 95% ethanol and sprayed using a standard spray bottle. Stable flies were collected by placing a screened cage containing (Peaceful Valley Farm Supply, Grass Valley, Calif.) bait beside a horse stable one day prior to the test. Approximately 200 stable flies were collected from each cage. The test bait comprising pieces of beef was placed in an aluminum pan at the bottom of the collecting cage. The test was conducted using meat sprayed with 50% racemic menthol propyleneglycol-carbonate solution, with a control composed of meat sprayed with ethanol alone. The test was conducted in duplicate. The number of stable flies landing and feeding on the meat was counted periodically.
# [7] = tested on: mosquito biting activity; test: Mosquito chamber protection time of combinations with DEET and citronella product (Natrapel); details: both at 10% w/w in hydrophilic ointment base, arms of 3 human volunteers
# Experimental: To test the effectiveness of menthol propyleneglycol-carbonate(menthol propyleneglycol-carbonate) in enhancing the effect of the known insect repellent DEET against mosquito biting activity, this study was undertaken by combining racemic menthol propyleneglycol-carbonate with DEET (purchased from Sigma-Aldrich). The two chemicals were added at 10% w/w in an Hydrophilic ointment base (E. Fougera & Co., Melville, N.Y.) and applied on the exposed arms of human volunteers. The treated arms were inserted inside a mosquito chamber and the protection time was determined. […] The recorded data represents the mean and standard error of 3 human volunteers.
# To test the effectiveness of menthol propyleneglycol-carbonate in enhancing the effect of another known mosquito repellent product, an experiment was undertaken in Which menthol propyleneglycol-carbonate was added at a concentration of 10% w/w to a citronella-based product (Natrapel) manufactured by Tender Corporation (Littleton, N.H.).
# [8] = tested on: Adult mosquitoes (Culex quinquefasciatus); test: Mosquito chamber test, protection time until first bite on lotion-coated arms of human volunteers; details: for Protection Time: 5 wt % in lotion base, elbow to fingertips of human volunteers, time to first bite, mean ± SEM, 4 volunteers
# Experimental: Adult mosquitoes (Culex quinquefasciatus) were kept inside a screened chamber measuring 2 ft×2 ft×2 ft at a density of 200 mosquitoes per chamber. The mosquitoes are aged 3 to 10 days after emergence from larvae and were starved for 24 hours prior to each test. Each of the test compounds (supplied as a gift from Symrise GmbH & Co Kg, Holzminden, Germany) was added to a commercial lotion base (Cresto Laboratories, […], Philippines) and thoroughly mixed into the lotion using an electronic mixer. The resulting formulation was applied from the elbow to the tip of the fingers of human volunteers. The coated arms of the volunteers were then inserted, in turn, inside the chamber up to the elbow. The protection time was determined for each formulation as the length of time until a mosquito had taken its first bite, after which the test was terminated. The data in Table 1 show the protection time determined in this manner for the compounds tested.
compound,measurement,setting,value
CC(O)COC(=O)OC1CC(C)CCC1C(C)C (racemic) [racemic menthol propyleneglycol-carbonate],Time to cross barrier,[1]; 15 mg/cm^2 on filter paper,63 ± 18 min
same,Time to cross barrier,[1]; 30 mg/cm^2 on filter paper,760 ± 76 min
same,PROTECTION TIME (Mean ± SEM),[2],93 ± 6
same,termite consumption of the wood,"[3]; impregnated wood, 2 months",completely prevented from consuming the wood
same,Percent of weight loss,"[3]; soft wood impregnated from 10% w/w ethanol solution (26 mg per gram of wood), 2 months outdoors on termite-infested tree",0.8 ± 0.4%
same,Protection Time,[4],at least 5 hours
same,Protection Time,[4]; listed as Racemic menthol propyleneglycol-carbonate,>5 h
same,Protection Time,[5],227 ± 19 min
same,time by which the spray lost its efficacy,[6]; from the initial single application of 50% spray,≤ 9 h
same,time the spray remained very effective,[6]; single application of 50% spray on meat,at least 5 hours
same,protection time / repellent effect of combination with DEET versus either compound alone (FIG. 3),[7],greater protection time
same,Protection Time,[8],283 ± 17 min
same,effectiveness in preventing mosquito bites relative to menthol or isopulegol,"[8]; from Table I protection times, 5 wt % in lotion",almost nine times more effective
same,inhibitory effect on mosquito bite (FIG. 1),[8]; lotion containing various concentrations,dose dependent manner
"C=C(C)C1CCC(C)CC1O (single isomer, unassigned; (-)) [(−)-isopulegol, 5-methyl-2-(1-methylethenyl) cyclohexanol, reference compound]",Protection Time,[8],56 ± 7 min
"CC1CCC(C(C)C)C(O)C1 (stereo not shown) [1-menthol, 1-5-methyl-2-isopropyl cyclohexanol, reference compound]",Protection Time,[8],30 ± 9 min
"CC1CCC(C(C)C)C(OCC(O)CO)C1 (stereo not shown) [menthoxy-propane-1,2-diol]",Protection Time,[8],68 ± 17 min
CC1CCC(C(C)C)C(OC(=O)OCCCCCCCCCO)C1 (stereo not shown) [menthyl-9-hydroxynonyl-carbonate],Protection Time,[8],79 ± 14 min
isopulegol propyleneglycol-carbonate,Protection Time,[8],152 ± 36 min
